Experimental data published in ChEMBL document CHEMBL5705888, “Substrate specificity and inhibitors of LRRK2, a protein kinase mutated in Parkinson's disease” (Biochem J, 2009).

What was measured:
[1] = target: T1, Mitogen-activated protein kinase 12 (Homo sapiens) (UniProt P53778); assay: Inhibition of p38gamma MAPK (unknown origin) at 1 uM incubated for 30 mins in presence of [gamma-33P]ATP by multidrop micro reagent based assay relative to control; values are per cent of control
T1 sequence (whole entry): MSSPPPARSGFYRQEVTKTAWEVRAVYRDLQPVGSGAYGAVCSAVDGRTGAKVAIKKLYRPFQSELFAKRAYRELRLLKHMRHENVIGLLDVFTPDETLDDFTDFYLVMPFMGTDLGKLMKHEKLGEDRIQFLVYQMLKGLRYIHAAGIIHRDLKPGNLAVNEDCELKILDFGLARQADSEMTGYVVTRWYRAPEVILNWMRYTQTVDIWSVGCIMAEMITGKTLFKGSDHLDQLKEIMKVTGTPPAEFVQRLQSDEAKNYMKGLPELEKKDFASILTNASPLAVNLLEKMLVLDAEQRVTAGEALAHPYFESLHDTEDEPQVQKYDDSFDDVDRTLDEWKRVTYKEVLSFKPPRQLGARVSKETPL

[2] = target: T2, Dual specificity protein kinase TTK (Homo sapiens) (UniProt P33981); assay: Inhibition of TTK (unknown origin) at 1 uM incubated for 30 mins in presence of [gamma-33P]ATP by multidrop micro reagent based assay relative to control; values are per cent of control
T2 sequence (whole entry): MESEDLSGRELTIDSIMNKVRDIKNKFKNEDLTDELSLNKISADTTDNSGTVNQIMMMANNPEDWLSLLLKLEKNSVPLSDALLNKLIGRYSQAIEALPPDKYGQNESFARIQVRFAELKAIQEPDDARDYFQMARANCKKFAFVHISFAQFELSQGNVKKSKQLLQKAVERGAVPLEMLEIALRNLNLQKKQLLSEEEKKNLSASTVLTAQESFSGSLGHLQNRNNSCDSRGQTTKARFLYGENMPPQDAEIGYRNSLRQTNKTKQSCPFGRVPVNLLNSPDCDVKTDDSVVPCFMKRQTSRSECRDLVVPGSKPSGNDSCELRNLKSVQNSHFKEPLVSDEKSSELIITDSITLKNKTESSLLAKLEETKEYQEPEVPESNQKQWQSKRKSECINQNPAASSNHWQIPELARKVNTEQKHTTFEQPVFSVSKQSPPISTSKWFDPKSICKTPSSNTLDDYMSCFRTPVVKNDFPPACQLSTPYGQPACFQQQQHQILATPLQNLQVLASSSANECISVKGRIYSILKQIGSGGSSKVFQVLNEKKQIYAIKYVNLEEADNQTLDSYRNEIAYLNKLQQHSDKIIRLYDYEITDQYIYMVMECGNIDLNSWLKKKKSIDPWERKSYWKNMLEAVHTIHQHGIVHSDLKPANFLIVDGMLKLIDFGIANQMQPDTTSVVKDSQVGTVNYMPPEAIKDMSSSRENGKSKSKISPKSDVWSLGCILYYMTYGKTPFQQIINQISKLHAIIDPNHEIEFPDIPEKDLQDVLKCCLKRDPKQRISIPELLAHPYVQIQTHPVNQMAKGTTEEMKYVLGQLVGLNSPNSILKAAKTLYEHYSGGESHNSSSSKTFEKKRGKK

Homo sapiens = organism: Homo sapiens; assay: Inhibition of CDK2/cyclin A (unknown origin) at 1 uM incubated for 30 mins in presence of [gamma-33P]ATP by multidrop micro reagent based assay relative to control; values are per cent of control
[3] = target: Receptor tyrosine-protein kinase erbB-4 (Homo sapiens) (UniProt Q15303); assay: Inhibition of HER4 (unknown origin) at 1 uM incubated for 30 mins in presence of [gamma-33P]ATP by multidrop micro reagent based assay relative to control; values are per cent of control
Chain of Receptor tyrosine-protein kinase erbB-4 (Homo sapiens) (Q15303 whole entry): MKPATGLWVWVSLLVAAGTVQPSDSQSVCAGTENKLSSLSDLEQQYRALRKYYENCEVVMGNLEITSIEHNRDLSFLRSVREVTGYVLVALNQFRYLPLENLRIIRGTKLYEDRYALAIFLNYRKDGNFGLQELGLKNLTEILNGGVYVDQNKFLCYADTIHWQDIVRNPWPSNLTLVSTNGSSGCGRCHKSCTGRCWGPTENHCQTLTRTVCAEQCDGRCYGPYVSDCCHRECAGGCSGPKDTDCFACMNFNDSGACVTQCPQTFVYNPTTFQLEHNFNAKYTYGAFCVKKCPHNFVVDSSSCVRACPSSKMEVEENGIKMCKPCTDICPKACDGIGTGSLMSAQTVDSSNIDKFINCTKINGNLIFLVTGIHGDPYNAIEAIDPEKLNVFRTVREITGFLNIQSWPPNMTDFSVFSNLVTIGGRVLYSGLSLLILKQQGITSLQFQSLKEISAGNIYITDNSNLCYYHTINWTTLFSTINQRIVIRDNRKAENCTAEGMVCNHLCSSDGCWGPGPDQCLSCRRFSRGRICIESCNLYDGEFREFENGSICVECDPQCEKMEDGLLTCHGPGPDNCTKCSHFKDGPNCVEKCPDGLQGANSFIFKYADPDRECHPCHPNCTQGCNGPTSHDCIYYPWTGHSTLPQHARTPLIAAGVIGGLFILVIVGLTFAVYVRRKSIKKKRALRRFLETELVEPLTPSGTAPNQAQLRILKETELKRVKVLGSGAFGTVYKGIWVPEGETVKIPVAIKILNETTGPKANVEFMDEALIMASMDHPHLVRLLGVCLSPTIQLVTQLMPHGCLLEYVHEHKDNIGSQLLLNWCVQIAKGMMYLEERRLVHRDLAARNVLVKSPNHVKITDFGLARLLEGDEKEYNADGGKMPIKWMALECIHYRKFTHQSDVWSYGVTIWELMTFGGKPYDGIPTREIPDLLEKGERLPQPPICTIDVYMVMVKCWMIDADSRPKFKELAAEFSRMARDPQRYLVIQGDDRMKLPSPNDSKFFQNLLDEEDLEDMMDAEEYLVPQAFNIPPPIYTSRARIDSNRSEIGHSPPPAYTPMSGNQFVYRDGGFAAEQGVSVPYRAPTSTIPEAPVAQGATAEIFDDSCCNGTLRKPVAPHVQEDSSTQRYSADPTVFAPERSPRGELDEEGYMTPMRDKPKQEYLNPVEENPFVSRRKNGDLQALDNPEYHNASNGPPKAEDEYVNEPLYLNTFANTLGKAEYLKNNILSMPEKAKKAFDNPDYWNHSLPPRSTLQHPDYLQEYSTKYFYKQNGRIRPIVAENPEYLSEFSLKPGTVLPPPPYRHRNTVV

[4] = target: T3, Serine/threonine-protein kinase Sgk1 (Homo sapiens) (UniProt O00141); assay: Inhibition of SGK1 (unknown origin) at 1 uM incubated for 30 mins in presence of [gamma-33P]ATP by multidrop micro reagent based assay relative to control; values are per cent of control
T3 sequence (whole entry): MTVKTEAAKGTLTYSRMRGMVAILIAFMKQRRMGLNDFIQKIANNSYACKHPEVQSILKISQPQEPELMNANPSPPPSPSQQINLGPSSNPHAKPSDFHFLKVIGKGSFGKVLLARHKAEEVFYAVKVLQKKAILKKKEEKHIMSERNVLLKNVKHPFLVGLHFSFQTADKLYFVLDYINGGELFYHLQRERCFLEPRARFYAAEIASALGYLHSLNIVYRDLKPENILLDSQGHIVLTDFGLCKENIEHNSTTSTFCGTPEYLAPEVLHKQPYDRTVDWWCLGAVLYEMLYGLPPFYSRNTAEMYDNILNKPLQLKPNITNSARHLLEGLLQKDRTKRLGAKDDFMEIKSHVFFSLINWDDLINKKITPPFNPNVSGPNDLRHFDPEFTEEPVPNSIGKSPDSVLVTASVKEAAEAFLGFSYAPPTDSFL

[5] = target: Mitogen-activated protein kinase 1 (Homo sapiens) (UniProt P28482); assay: Inhibition of ERK2 (unknown origin) at 1 uM incubated for 30 mins in presence of [gamma-33P]ATP by multidrop micro reagent based assay relative to control; values are per cent of control
Chain of Mitogen-activated protein kinase 1 (Homo sapiens) (P28482 whole entry): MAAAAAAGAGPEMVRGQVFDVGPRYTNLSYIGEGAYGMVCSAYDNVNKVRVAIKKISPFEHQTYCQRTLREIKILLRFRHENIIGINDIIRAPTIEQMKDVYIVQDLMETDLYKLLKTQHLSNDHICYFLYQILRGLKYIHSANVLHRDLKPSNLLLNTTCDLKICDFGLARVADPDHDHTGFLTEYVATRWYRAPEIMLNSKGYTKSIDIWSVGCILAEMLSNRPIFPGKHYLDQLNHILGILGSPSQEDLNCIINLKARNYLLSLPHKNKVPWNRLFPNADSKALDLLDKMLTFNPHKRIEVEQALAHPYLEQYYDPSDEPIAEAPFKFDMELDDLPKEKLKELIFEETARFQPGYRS

[6] = target: MAP kinase-interacting serine/threonine-protein kinase 2 (Homo sapiens) (UniProt Q9HBH9); assay: Inhibition of MNK2 (unknown origin) at 10 uM incubated for 30 mins in presence of [gamma-33P]ATP by multidrop micro reagent based assay relative to control; values are per cent of control
Chain of MAP kinase-interacting serine/threonine-protein kinase 2 (Homo sapiens) (Q9HBH9 whole entry, looked up): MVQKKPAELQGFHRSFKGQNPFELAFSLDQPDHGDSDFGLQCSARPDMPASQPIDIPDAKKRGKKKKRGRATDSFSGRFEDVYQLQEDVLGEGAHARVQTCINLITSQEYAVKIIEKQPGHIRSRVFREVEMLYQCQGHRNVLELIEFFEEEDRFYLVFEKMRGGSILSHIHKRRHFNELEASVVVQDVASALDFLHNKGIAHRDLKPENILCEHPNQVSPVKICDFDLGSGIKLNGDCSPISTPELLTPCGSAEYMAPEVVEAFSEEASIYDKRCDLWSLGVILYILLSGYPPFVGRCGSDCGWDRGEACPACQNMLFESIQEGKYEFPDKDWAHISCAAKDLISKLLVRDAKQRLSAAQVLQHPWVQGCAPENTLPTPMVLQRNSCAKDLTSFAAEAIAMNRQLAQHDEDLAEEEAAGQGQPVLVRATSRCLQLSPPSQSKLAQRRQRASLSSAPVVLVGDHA

[7] = target: AMP-activated protein kinase, AMPK (Homo sapiens) (UniProt P54646+O43741+P54619+Q9UGJ0+Q9Y478+Q13131+Q9UGI9); assay: Inhibition of AMPK (unknown origin) at 10 uM incubated for 30 mins in presence of [gamma-33P]ATP by multidrop micro reagent based assay relative to control; format: protein-complex assay
[8] = target: Proto-oncogene tyrosine-protein kinase Src (Homo sapiens) (UniProt P12931); assay: Inhibition of Src (unknown origin) at 10 uM incubated for 30 mins in presence of [gamma-33P]ATP by multidrop micro reagent based assay relative to control; values are per cent of control
Chain of Proto-oncogene tyrosine-protein kinase Src (Homo sapiens) (P12931 2-536 limits assumed): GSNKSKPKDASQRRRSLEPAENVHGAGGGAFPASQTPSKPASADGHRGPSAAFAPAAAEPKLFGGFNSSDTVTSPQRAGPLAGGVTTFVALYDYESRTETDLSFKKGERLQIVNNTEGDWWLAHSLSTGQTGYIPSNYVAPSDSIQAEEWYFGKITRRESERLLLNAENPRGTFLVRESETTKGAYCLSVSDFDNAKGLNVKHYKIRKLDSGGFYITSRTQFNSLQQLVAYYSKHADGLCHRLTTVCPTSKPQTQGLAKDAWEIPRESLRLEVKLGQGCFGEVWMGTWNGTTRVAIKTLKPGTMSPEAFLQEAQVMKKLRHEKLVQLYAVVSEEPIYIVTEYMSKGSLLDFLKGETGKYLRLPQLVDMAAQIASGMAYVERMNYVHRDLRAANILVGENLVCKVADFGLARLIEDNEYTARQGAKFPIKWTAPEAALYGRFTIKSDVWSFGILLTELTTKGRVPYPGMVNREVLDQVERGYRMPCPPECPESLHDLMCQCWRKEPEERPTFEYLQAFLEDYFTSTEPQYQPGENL

SMILES | residual activity [1] [%] | residual activity [2] [%] | residual activity (Homo sapiens) [%] | residual activity [3] [%] | residual activity [4] [%] | residual activity [5] [%] | residual activity [6] [%] | inhibition [7] [%] | residual activity [8] [%]
CC1=C(C(=O)Nc2cc3cn[nH]c3cc2F)C(c2ccc(C(F)(F)F)cc2)CC(=O)N1 (centres undefined) | 112 | 83 | 49 | 50 | 131 | 94 | – | – | –
Cc1cncc2cccc(S(=O)(=O)N3CCCNC[C@@H]3C)c12 | 101 | – | – | 107 | – | – | – | – | –
C[C@@H](N)[C@H]1CC[C@H](C(=O)Nc2ccncc2)CC1 | – | – | – | – | – | – | 44 | 77 | 90
O=S(=O)(c1cccc2cnccc12)N1CCCNCC1 [FASUDIL] | – | – | – | – | – | – | 27 | 60 | 120
CCn1c(-c2nonc2N)nc2cnc(Oc3cccc(NC(=O)c4ccc(OCCN5CCOCC5)cc4)c3)cc21 [GSK-269962A] | 72 | 69 | 50 | – | 24 | 105 | – | – | –
